According to BigSolDB 2.1:

COC(=O)NCCCCCCNC(=O)OC
solubility (mole fraction)
Conditions	298.15 K	300.15 K	303.15 K	308.15 K	313.15 K	318.15 K	323.15 K	328.15 K	333.15 K
in dimethyl carbonate	0.00596	0.00689	0.00839	0.0117	0.0161	0.0207	0.026	0.0338	0.042
in ethanol	0.0155	0.0179	0.0205	0.0279	0.0355	0.0463	0.0625	0.0769	0.0987
in ethyl acetate	0.00814	0.00976	0.0124	0.0176	0.0233	0.029	0.0369	0.0445	0.0536
in toluene	0.00731	0.00912	0.0111	0.0167	0.0232	0.0353	0.0462	0.0614	0.0824
in water	6.21e-05	6.92e-05	7.91e-05	0.000106	0.000146	0.000185	0.00025	0.000339	0.000439
